Measured values published in ChEMBL document CHEMBL3351801, “Phragmalin-type limonoids with NF-κB inhibition from Chukrasia tabularis var. velutina” (Bioorg Med Chem Lett, 2014).

Legend:
Assay type in all cases: cell-based
[1] = molecular target: T1, Nuclear factor NF-kappa-B complex (Homo sapiens) (UniProt Q00653+P19838+Q04206); test: Inhibition of LPS-induced NF-kappaB (unknown origin) expressed in HEK293 cells at 1 ug/ml after 4 hrs by luciferase reporter gene assay relative to LPS-treated control
[2] = molecular target: T1, Nuclear factor NF-kappa-B complex (Homo sapiens); test: Inhibition of LPS-induced NF-kappaB (unknown origin) expressed in HEK293 cells at 10 ug/ml after 4 hrs by luciferase reporter gene assay relative to LPS-treated control
[3] = molecular target: T1, Nuclear factor NF-kappa-B complex (Homo sapiens); test: Inhibition of LPS-induced NF-kappaB (unknown origin) expressed in HEK293 cells at 100 ug/ml after 4 hrs by luciferase reporter gene assay relative to LPS-treated control

T1 sequence (P19838 whole entry, looked up): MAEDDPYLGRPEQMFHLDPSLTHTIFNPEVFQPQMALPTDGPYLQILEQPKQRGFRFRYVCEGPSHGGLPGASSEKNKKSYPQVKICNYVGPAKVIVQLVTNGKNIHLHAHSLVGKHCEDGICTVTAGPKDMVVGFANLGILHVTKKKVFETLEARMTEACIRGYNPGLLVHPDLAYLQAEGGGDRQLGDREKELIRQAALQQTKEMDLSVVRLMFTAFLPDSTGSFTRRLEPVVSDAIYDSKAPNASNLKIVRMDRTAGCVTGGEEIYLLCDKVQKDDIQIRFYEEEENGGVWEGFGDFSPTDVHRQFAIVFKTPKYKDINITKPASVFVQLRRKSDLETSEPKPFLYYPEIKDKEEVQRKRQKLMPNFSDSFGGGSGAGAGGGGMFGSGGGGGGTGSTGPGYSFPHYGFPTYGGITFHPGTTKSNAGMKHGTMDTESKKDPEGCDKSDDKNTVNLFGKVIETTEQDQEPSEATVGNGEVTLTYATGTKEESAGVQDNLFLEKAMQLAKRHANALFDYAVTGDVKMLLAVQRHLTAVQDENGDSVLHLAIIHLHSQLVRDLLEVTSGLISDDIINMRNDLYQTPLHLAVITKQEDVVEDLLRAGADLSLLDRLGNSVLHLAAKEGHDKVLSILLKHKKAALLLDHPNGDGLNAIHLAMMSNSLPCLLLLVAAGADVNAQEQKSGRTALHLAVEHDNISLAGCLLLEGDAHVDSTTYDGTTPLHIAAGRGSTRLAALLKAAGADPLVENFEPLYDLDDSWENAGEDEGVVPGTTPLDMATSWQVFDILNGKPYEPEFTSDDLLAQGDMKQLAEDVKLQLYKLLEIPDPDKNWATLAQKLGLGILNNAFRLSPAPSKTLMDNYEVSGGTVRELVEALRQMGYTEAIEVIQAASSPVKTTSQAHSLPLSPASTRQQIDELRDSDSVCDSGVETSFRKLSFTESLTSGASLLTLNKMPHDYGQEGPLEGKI
T1 sequence (Q00653 whole entry, looked up): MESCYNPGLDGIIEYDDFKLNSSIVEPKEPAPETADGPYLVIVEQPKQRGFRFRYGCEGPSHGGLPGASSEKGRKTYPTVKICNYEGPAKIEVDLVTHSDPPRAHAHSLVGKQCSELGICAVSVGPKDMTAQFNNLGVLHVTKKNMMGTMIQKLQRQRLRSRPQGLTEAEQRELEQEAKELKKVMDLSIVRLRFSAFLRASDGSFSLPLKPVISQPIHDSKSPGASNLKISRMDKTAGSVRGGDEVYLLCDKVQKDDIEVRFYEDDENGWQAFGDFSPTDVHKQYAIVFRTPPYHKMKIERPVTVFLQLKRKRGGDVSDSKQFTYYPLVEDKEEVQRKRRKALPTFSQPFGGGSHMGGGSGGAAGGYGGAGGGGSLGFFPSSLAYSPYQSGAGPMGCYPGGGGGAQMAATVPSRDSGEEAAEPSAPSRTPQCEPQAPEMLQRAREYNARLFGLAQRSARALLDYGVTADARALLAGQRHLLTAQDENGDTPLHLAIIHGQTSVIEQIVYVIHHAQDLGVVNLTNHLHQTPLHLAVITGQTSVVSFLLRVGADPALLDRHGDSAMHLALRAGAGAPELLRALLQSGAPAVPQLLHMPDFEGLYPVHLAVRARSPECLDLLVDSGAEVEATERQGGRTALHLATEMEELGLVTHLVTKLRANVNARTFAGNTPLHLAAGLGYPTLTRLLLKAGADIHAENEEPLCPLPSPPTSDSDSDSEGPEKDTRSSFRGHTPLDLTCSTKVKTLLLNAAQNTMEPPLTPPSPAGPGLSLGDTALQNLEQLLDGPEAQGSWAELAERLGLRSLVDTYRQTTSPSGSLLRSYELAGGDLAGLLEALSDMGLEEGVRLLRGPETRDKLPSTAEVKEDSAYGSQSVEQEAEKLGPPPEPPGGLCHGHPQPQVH
T1 sequence (Q04206 whole entry, looked up): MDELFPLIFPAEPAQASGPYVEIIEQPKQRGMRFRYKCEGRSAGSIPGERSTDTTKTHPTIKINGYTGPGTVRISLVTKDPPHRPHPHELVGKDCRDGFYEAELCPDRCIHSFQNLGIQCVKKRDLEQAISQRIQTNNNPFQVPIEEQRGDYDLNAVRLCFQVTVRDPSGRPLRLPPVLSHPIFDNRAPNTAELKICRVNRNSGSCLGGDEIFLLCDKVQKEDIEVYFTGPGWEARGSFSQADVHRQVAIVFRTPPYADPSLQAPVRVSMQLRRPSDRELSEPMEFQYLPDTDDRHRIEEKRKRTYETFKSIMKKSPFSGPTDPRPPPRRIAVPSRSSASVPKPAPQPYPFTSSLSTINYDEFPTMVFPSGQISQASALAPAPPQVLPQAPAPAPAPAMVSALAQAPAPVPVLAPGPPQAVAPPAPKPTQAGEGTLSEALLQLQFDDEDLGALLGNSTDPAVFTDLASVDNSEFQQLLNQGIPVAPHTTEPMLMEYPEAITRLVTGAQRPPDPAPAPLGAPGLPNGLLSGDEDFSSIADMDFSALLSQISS

Structure (SMILES)	Ratio [1]	Ratio [2]	Ratio [3]
COC(=O)C[C@H]1[C@]2(C)C[C@]3(O)[C@@](O)([C@@H](OC(=O)C(C)C)[C@]45OC6(C)O[C@H]([C@H](OC(C)=O)[C@]78C[C@@]74[C@@H](OC(C)=O)C(=O)O[C@H]8c4ccoc4)[C@]5(O6)[C@]13C)[C@H]2OC(C)=O	0.12	0.32	0.35
CCC12C[C@@H]3[C@](C)([C@@H](OC(C)=O)c4ccoc4)[C@@H](OC(C)=O)[C@@H](OC(C)=O)[C@@]4(O)[C@]3(O1)[C@H](O2)[C@@]1(OC(C)=O)[C@@H](OC(C)=O)[C@@]2(C)C[C@@]1(O)[C@@]4(COC(C)=O)[C@H]2CC(=O)OC	0.36	0.38	0.53
CCC12C[C@@H]3[C@](C)([C@@H](OC(C)=O)c4ccoc4)[C@@H](O)[C@@H](O)[C@@]4(O)[C@]3(O1)[C@H](O2)[C@@]1(OC(C)=O)[C@@H](OC(C)=O)[C@@]2(C)C[C@@]1(O)[C@]41COC(=O)C[C@@H]21	0.33	0.48	0.59
CCC12C[C@@H]3[C@](C)([C@@H](OC(C)=O)c4ccoc4)[C@@H](OC(C)=O)[C@@H](OC(C)=O)[C@@]4(O)[C@]3(O1)[C@H](O2)[C@@]1(OC(C)=O)[C@@H](OC(C)=O)[C@@]2(C)C[C@@]1(O)[C@@]4(C)[C@H]2CC(=O)OC	0.61	0.39	0.75
COC(=O)C[C@H]1[C@]2(C)C[C@]3(O)[C@@](O)([C@H]4OC(C)=C[C@@H]5[C@](C)([C@@H](OC(C)=O)c6ccoc6)[C@@H](OC(C)=O)[C@@H](OC(C)=O)[C@]6(OC(=O)O[C@]546)[C@]13C)[C@H]2O	0.69	0.57	0.86
COC(=O)C[C@H]1[C@]2(C)C[C@]3(O)[C@@](OC(C)=O)([C@H]4OC5(C)C[C@@H]6[C@](C)([C@@H](OC(C)=O)c7ccoc7)[C@@H](OC(C)=O)[C@@H](OC(C)=O)[C@@](O)([C@@]64O5)[C@]13COC(C)=O)[C@H]2OC(C)=O	0.23	0.34	0.8
COC(=O)[C@H](OC(C)=O)[C@H]1[C@]2(C)C[C@]3(O)[C@@](O)([C@H]4OC(=O)[C@@H]5O[C@@H](c6ccoc6)[C@@]67C[C@@]56[C@]4(O)[C@](O)([C@H](OC(=O)C(C)C)[C@@H]7OC(C)=O)[C@]13C)[C@H]2OC(C)=O	0.14	0.27	0.3
CCC12C[C@@H]3[C@](C)([C@@H](OC(C)=O)c4ccoc4)[C@@H](OC(C)=O)[C@@H](OC(C)=O)[C@@]4(O)[C@]3(O1)[C@H](O2)[C@@]1(OC(C)=O)[C@@H](OC(C)=O)[C@@]2(C)C[C@@]1(O)[C@]41COC(=O)C[C@@H]21	0.09	0.34	0.31
COC(=O)[C@H](OC(C)=O)[C@H]1[C@]2(C)C[C@]3(O)[C@@](OC(=O)C(C)C)([C@H]4OC5(C)O[C@@]6([C@H](O)[C@H](O)[C@]78C[C@]7([C@@H](OC(C)=O)C(=O)O[C@H]8c7ccoc7)[C@@]46O5)[C@]13C)[C@H]2OC(C)=O	0.09	0.32	0.44
COC(=O)[C@H](O)[C@H]1[C@]2(C)C[C@]3(O)[C@@](O)([C@@H](OC(=O)C(C)C)[C@]45OC6(C)O[C@H]([C@H](OC(C)=O)[C@]78C[C@@]74[C@@H](OC(C)=O)C(=O)O[C@H]8c4ccoc4)[C@]5(O6)[C@]13C)[C@H]2OC(C)=O	0.22	0.15	0.34
CC/C(O)=C1/C(=O)O[C@@H]2[C@@]3(OC(C)=O)[C@@H](OC(C)=O)[C@@]4(C)C[C@]35OC3(C)O[C@]26[C@H]1[C@](C)([C@@H](OC(C)=O)c1ccoc1)[C@@H](OC(C)=O)[C@@H](O)[C@]6(O3)[C@]5(COC(C)=O)[C@H]4CC(=O)OC	0.23	0.33	0.45
CC(=O)O[C@@H]1[C@H](OC(C)=O)[C@@](C)([C@@H](OC(C)=O)c2ccoc2)[C@H]2CC3(C(C)C)O[C@@H]4[C@@]5(OC(C)=O)[C@@H](OC(C)=O)[C@@]6(C)C[C@@]5(O)[C@]5(COC(=O)C[C@@H]65)[C@]1(O)[C@@]24O3	0.17	0.25	0.3
CCC12C[C@@H]3[C@](C)([C@@H](OC(C)=O)c4ccoc4)[C@@H](OC(C)=O)[C@@H](OC(C)=O)[C@@]4(O)[C@]3(O1)[C@H](O2)[C@@]1(O)[C@@H](OC(C)=O)[C@@]2(C)C[C@@]1(O)[C@]41COC(=O)C[C@@H]21	0.16	0.26	0.31
COC(=O)[C@H](OC(C)=O)[C@H]1[C@]2(C)C[C@]3(O)[C@@](O)([C@@H](OC(=O)C(C)C)[C@]45OC6(C)O[C@H]([C@H](O)[C@]78C[C@@]74[C@@H](OC(C)=O)C(=O)O[C@H]8c4ccoc4)[C@]5(O6)[C@]13C)[C@H]2OC(C)=O	0.05	0.1	0.1
COC(=O)[C@H](O)[C@H]1[C@]2(C)C[C@]3(O)[C@@](O)([C@H]4OC5(C)C[C@@H]6[C@](C)([C@@H](OC(C)=O)c7ccoc7)[C@@H](OC(C)=O)[C@@H](OC(C)=O)[C@@](O)([C@@]64O5)[C@]13C)[C@H]2O	0.33	0.2	0.56
COC(=O)C[C@H]1[C@]2(C)C[C@]3(O)[C@@](OC(C)=O)([C@H]4OC5(C)C[C@@H]6[C@](C)([C@@H](OC(C)=O)c7ccoc7)[C@@H](OC(C)=O)[C@@H](OC(C)=O)[C@@](O)([C@@]64O5)[C@]13C)[C@H]2OC(C)=O	0.21	0.33	0.32
CCC12C[C@@H]3[C@](C)([C@@H](OC(C)=O)c4ccoc4)[C@@H](OC(C)=O)[C@@H](OC(C)=O)[C@@]4(O)[C@]3(O1)[C@H](O2)[C@@]1(O)[C@@H](OC(C)=O)[C@@]2(C)C[C@@]1(O)[C@@]4(C)[C@H]2CC(=O)OC	0.12	0.08	0.17
C[C@]12CCC(=O)C=C1CC[C@@H]1[C@@H]2[C@@H](O)C[C@@]2(C)[C@H]1CC[C@]2(O)C(=O)CO	0.29	0.37	0.6
COC(=O)C[C@H]1[C@]2(C)C[C@@]34OC5(C)O[C@]6([C@@H]7/C(=C(\C)O)C(=O)O[C@@H](c8ccoc8)[C@]7(C)[C@@H](OC(C)=O)[C@@H](O)[C@]6(O5)[C@]13COC(C)=O)[C@H](OC(C)=O)[C@@]4(OC(C)=O)[C@H]2OC(C)=O	0.25	0.33	0.62
CC/C(O)=C1/C(=O)O[C@@H]2[C@@]3(O)[C@@H](OC(C)=O)[C@@]4(C)C[C@]35OC3(C)O[C@]26[C@H]1[C@](C)([C@@H](OC(C)=O)c1ccoc1)[C@@H](OC(C)=O)[C@@H](O)[C@]6(O3)[C@]5(COC(C)=O)[C@H]4CC(=O)OC	0.23	0.3	0.35
COC(=O)[C@H](OC(C)=O)[C@H]1[C@]2(C)C[C@]3(O)[C@@](O)([C@@H](OC(=O)C(C)C)[C@]45OC6(C)O[C@H]([C@H](OC(C)=O)[C@]78C[C@@]74[C@@H](OC(C)=O)C(=O)O[C@H]8c4ccoc4)[C@]5(O6)[C@]13C)[C@H]2OC(C)=O	0.37	0.55	0.62
CCC(=O)O[C@@H]1[C@@]2(O)[C@@H](OC(C)=O)[C@@]3(C)C[C@]24OC2(C)O[C@]15[C@@H]1CC(=O)O[C@@H](c6ccoc6)[C@]1(C)[C@@H](OC(C)=O)[C@@H](O)[C@]5(O2)[C@]4(COC(C)=O)[C@H]3CC(=O)OC	0.18	0.26	0.32
CC/C(O)=C1/C(=O)O[C@@H]2[C@@]3(O)[C@@H](OC(C)=O)[C@@]4(C)C[C@]35OC3(C)O[C@]26[C@H]1[C@](C)([C@@H](OC(C)=O)c1ccoc1)[C@@H](OC(=O)C(C)C)[C@@H](OC(=O)C(C)C)[C@]6(O3)[C@@]51COC(=O)C[C@@H]41	0.11	0.18	0.29
CC(=O)O[C@@H]1[C@H](OC(C)=O)[C@@](C)([C@@H](OC(C)=O)c2ccoc2)[C@H]2CC3(C)O[C@@H]4[C@@]5(OC(C)=O)[C@@H](OC(C)=O)[C@@]6(C)C[C@@]5(O)[C@]5(COC(=O)C[C@@H]65)[C@]1(O)[C@@]24O3	0.25	0.27	0.42
COC(=O)[C@H](OC(C)=O)[C@H]1[C@]2(C)C[C@]3(O)[C@@](OC(=O)C(C)C)([C@H]4OC5(C)O[C@@]6([C@H](O)[C@H](OC(C)=O)[C@]78C[C@]7([C@@H](OC(C)=O)C(=O)O[C@H]8c7ccoc7)[C@@]46O5)[C@]13C)[C@H]2OC(C)=O	0.13	0.05	0.24
CC/C(O)=C1/C(=O)O[C@@H]2[C@@]3(O)[C@@H](OC(C)=O)[C@@]4(C)C[C@]35OC3(C)O[C@]26[C@H]1[C@](C)([C@@H](OC(C)=O)c1ccoc1)[C@@H](OC(C)=O)[C@@H](OC(C)=O)[C@]6(O3)[C@]5(COC(C)=O)[C@H]4CC(=O)OC	0.13	0.27	0.45
CCC12C[C@@H]3[C@](C)([C@@H](OC(C)=O)c4ccoc4)[C@@H](O)[C@@H](OC(C)=O)[C@@]4(O)[C@]3(O1)[C@H](O2)[C@@]1(OC(C)=O)[C@@H](O)[C@@]2(C)C[C@@]1(O)[C@@]4(C)[C@H]2[C@@H](O)C(=O)OC	0.1	0.23	0.3
COC(=O)C[C@H]1[C@]2(C)C[C@]3(O)[C@@](O)([C@@H](OC(=O)C(C)C)[C@]45OC6(C)O[C@H]([C@H](O)[C@]78C[C@@]74[C@@H](OC(C)=O)C(=O)O[C@H]8c4ccoc4)[C@]5(O6)[C@]13C)[C@H]2OC(C)=O	0.1	0.1	0.17
CCC1=C[C@@H]2[C@](C)([C@@H](OC(C)=O)c3ccoc3)[C@@H](OC(C)=O)[C@@H](OC(C)=O)[C@@]34OC(=O)O[C@@]23[C@H](O1)[C@@]1(O)[C@@H](O)[C@@]2(C)C[C@@]1(O)[C@@]4(C)[C@H]2CC(=O)OC	0.16	0.14	0.26
